Reference: ChEMBL document CHEMBL1131496, “Excitatory amino acid receptor ligands: resolution, absolute stereochemistry, and enantiopharmacology of 2-amino-3-(4-butyl-3-hydroxyisoxazol-5-yl)propionic acid” (J Med Chem, 1998)
pEC50, pIC50: −log10 of the molar value.

How the values were obtained:
Rattus norvegicus = species on record: Rattus norvegicus; test: Compound was tested for electrophysiological experiments using rat cortical wedge preparation; assay type: functional
[1] = In vitro binding affinity against Metabotropic glutamate receptor using [3H](S)-glutamic acid; parameters: species or system Mus musculus
[2] = biological target: Glutamate receptor ionotropic, AMPA (Mus musculus, UniProt P23818+P23819+Q9Z2W8+Q9Z2W9)
Description: Compound was tested for in vitro binding affinity against Ionotropic glutamate receptor AMPA using [3H]AMPA ligand

Mus musculus [3] = test: In vivo convulsant activity were tested in mice after intravenous administration.
Mus musculus [4] = test: In vivo convulsant activity were tested in mice after subcutaneous administration.; assay type: functional; details: sc

| Structure (SMILES) | pEC50 (Rattus norvegicus) | pIC50 [1] | pIC50 [2] | ED50 (Mus musculus [3]) | ED50 (Mus musculus [4]) |
| --- | --- | --- | --- | --- | --- |
| CCCCc1c(O)noc1CC(N)C(=O)O (stereo unspecified) | 4.43 | 6.20 | 5.74 | 94 µmol/kg | 110 µmol/kg |
| CCCCc1c(O)noc1C[C@@H](N)C(=O)O | < 3.00 | 6.24 | < 3.00 | > 350 µmol/kg |  |
| CCCCc1c(O)noc1C[C@H](N)C(=O)O | 4.77 | 6.19 | 6.32 | 44 µmol/kg |  |
| N[C@@H](Cc1onc(O)c1Br)C(=O)O | 4.68 | 6.66 | 6.47 |  |  |
| N[C@H](Cc1onc(O)c1Br)C(=O)O | < 3.00 | 6.82 | 4.49 |  |  |
| NC(Cc1onc(O)c1Br)C(=O)O (stereo unspecified) | 4.64 | 6.70 | 6.22 |  |  |
| Cc1onc(O)c1CC(N)C(=O)O [(R,S)-AMPA] |  | < 4.00 |  | 55 µmol/kg |  |
| N[C@@H](Cn1oc(=O)[nH]c1=O)C(=O)O [QUISQUALATE] | 5.14 | 7.60 |  |  |  |
